Values after ≈ are worked out from the molar mass of the structure shown. Like-named read-outs stand apart in the source and are kept apart here.
Experiments:
[1] = test system: B. cereus ATCC 11778; assay: NCCLS broth microdilution MIC; format: cell-based, Bacillus cereus; conditions: for MIC: Bacillus cereus
Protocol: (§1) Compounds according to this invention were screened for their in vitro activities against selected species of bacteria and fungi. The minimal inhibition concentration (MIC) of these compounds was determined using the National Committee for Clinical Laboratory Standards (NCCLS) broth microdilution assay in microtiter plates, as set forth in: (1) the guidelines of the National Committee for Clinical Laboratory Standards (NCCLS) Document M7-A4 (NCCLS, 1997); (2) the guidelines of the National Committee for Clinical Laboratory Standards (NCCLS) Document M11-A4 (NCCLS, 1997); and (3) the guidelines and reference method of the National Committee for Clinical Laboratory Standards (NCCLS) Document M27-T (NCCLS, 1995). For antifungal essays, the method recommended in Murray, P R., 1995 Manual of Clinical Microbiology (ASM Press, Washington, D.C.), was employed. […]

[2] = test system: S. pneumoniae ATCC 49619; assay: NCCLS broth microdilution MIC; format: cell-based, Streptococcus pneumoniae; conditions: for MIC: Streptococcus pneumoniae
Protocol: as §1

[3] = test system: E. coli ATCC 25922; assay: NCCLS broth microdilution MIC; format: cell-based; conditions: for MIC: Escherichia coli
Protocol: as §1

[4] = test system: C. albicans ATCC 38247; assay: NCCLS broth microdilution MIC (antifungal); format: cell-based; conditions: E = C. albicans ATCC 38247
Protocol: as §1

[5] = test system: E. faecalis ATCC 29212; assay: NCCLS broth microdilution MIC; format: cell-based, Enterococcus faecalis; conditions: for MIC: Enterococcus faecalis
Protocol: as §1

[6] = test system: S. aureus ATCC 29213; assay: NCCLS broth microdilution MIC; format: cell-based, Staphylococcus aureus; conditions: for MIC: Staphylococcus aureus
Protocol: as §1

[7] = ATCC11778, C = B. cereus ATCC 11778, read-out: Minimum Inhibitory Concentration (MIC)
[8] = ATCC49619, F = S. pneumoniae ATCC 49619, read-out: Minimum Inhibitory Concentration (MIC)
[9] = ATCC25922, D = E. coli ATCC 25922, read-out: Minimum Inhibitory Concentration (MIC)
[10] = ATCC29212, B = E. faecalis ATCC 29212, read-out: Minimum Inhibitory Concentration (MIC)

**Q.** For Cn1cc(NC(=O)c2cc(NC(=O)c3cc(NC(=O)c4scc(Br)c4Cl)cn3C)cn2C)cc1C(=O)NCCN1CCSCC1 [Ie-14], which “Minimum Inhibitory Concentration (MIC)” value ([1]; C = B. cereus ATCC 11778) is on record?
**A.** +++ (+++ = MIC ≦4)

**Q.** What about the “Minimum Inhibitory Concentration (MIC)” value ([2]; F = S. pneumoniae ATCC 49619) of the same molecule?
**A.** +++ (+++ = MIC ≦4)

**Q.** What about the “Minimum Inhibitory Concentration (MIC)” value ([3]; D = E. coli ATCC 25922) of the same molecule?
**A.** >32 µg/mL

**Q.** And the “Minimum Inhibitory Concentration (MIC)” value [4]?
**A.** >32 µg/mL

**Q.** And the “Minimum Inhibitory Concentration (MIC)” value ([5]; B = E. faecalis ATCC 29212)?
**A.** +++ (+++ = MIC ≦4)

**Q.** For Cn1cc(NC(=O)c2cc(NC(=O)c3cc(NC(=O)c4scc(Br)c4Cl)cn3C)cn2C)cc1C(=O)NCCN1CCCCC1 [Ie-15], which “Minimum Inhibitory Concentration (MIC)” value ([1]; C = B. cereus ATCC 11778) is on record?
**A.** +++ (+++ = MIC ≦4)

**Q.** What about the “Minimum Inhibitory Concentration (MIC)” value ([2]; F = S. pneumoniae ATCC 49619) of the same molecule?
**A.** +++ (+++ = MIC ≦4)

**Q.** And the “Minimum Inhibitory Concentration (MIC)” value ([3]; D = E. coli ATCC 25922)?
**A.** + (+ = MIC from 12 to 32, inclusive)

**Q.** And the “Minimum Inhibitory Concentration (MIC)” value [4]?
**A.** + (+ = MIC from 12 to 32, inclusive)

**Q.** What about the “Minimum Inhibitory Concentration (MIC)” value ([5]; B = E. faecalis ATCC 29212) of the same molecule?
**A.** +++ (+++ = MIC ≦4)

**Q.** Cn1cc(NC(=O)c2cc(NC(=O)c3cc(NC(=O)c4sccc4Cl)cs3)cn2C)cc1C(=O)NCCN1CCOCC1 [Ig-1] was tested. Which “Minimum Inhibitory Concentration (MIC)” value ([2]; F = S. pneumoniae ATCC 49619) did it give?
**A.** ++ (++ = MIC between 4 and 12)

**Q.** What about the “Minimum Inhibitory Concentration (MIC)” value ([6]; A = S. aureus ATCC 29213) of the same molecule?
**A.** +++ (+++ = MIC ≦4)

**Q.** What about the “Minimum Inhibitory Concentration (MIC)” value [4] of the same molecule?
**A.** >32 µg/mL

**Q.** And the “Minimum Inhibitory Concentration (MIC)” value ([5]; B = E. faecalis ATCC 29212)?
**A.** +++ (+++ = MIC ≦4)

**Q.** With Cn1cc(NC(=O)c2cc(NC(=O)c3cc(NC(=O)c4sccc4Cl)cn3CCCO)cn2C)cc1C(=O)NCCC(=O)NCCN1CCOCC1 [Ig-2] as the molecule, how does the “Minimum Inhibitory Concentration (MIC)” value ([2]; F = S. pneumoniae ATCC 49619) read?
**A.** >32 µg/mL

**Q.** What about the “Minimum Inhibitory Concentration (MIC)” value ([6]; A = S. aureus ATCC 29213) of the same molecule?
**A.** >32 µg/mL

**Q.** What about the “Minimum Inhibitory Concentration (MIC)” value [4] of the same molecule?
**A.** >32 µg/mL

**Q.** What about the “Minimum Inhibitory Concentration (MIC)” value ([5]; B = E. faecalis ATCC 29212) of the same molecule?
**A.** >32 µg/mL

**Q.** What does the source list for CC(C)S(=O)(=O)c1csc(C(=O)Nc2csc(C(=O)Nc3cc(C(=O)Nc4cc(C(=O)NCCN5CCOCC5)n(C)c4)n(C)c3)c2)c1Cl [Ig-4]?
**A.** Minimum Inhibitory Concentration (MIC) ([2]; F = S. pneumoniae ATCC 49619): +++ (+++ = MIC ≦4); Minimum Inhibitory Concentration (MIC) ([6]; A = S. aureus ATCC 29213): +++ (+++ = MIC ≦4); Minimum Inhibitory Concentration (MIC) [4]: >32 µg/mL; Minimum Inhibitory Concentration (MIC) ([5]; B = E. faecalis ATCC 29212): +++ (+++ = MIC ≦4)

**Q.** Which results are given for Cn1cc(NC(=O)c2cc(NC(=O)c3cc(NC(=O)c4sccc4F)cs3)cn2C)cc1C(=O)NCCN1CCOCC1 [Ig-5]?
**A.** Minimum Inhibitory Concentration (MIC) ([2]; F = S. pneumoniae ATCC 49619): +++ (+++ = MIC ≦4); Minimum Inhibitory Concentration (MIC) ([6]; A = S. aureus ATCC 29213): +++ (+++ = MIC ≦4); Minimum Inhibitory Concentration (MIC) [4]: >32 µg/mL; Minimum Inhibitory Concentration (MIC) ([5]; B = E. faecalis ATCC 29212): +++ (+++ = MIC ≦4)

**Q.** What does the source list for Cn1cc(NC(=O)c2cc(NC(=O)c3nc(NC(=O)c4scc(Br)c4Cl)cn3C)cn2C)cc1C(=O)NCCN1CCSCC1 [Ig-10]?
**A.** Minimum Inhibitory Concentration (MIC) ([1]; C = B. cereus ATCC 11778): +++ (+++ = MIC ≦4); Minimum Inhibitory Concentration (MIC) ([2]; F = S. pneumoniae ATCC 49619): +++ (+++ = MIC ≦4); Minimum Inhibitory Concentration (MIC) ([3]; D = E. coli ATCC 25922): >32 µg/mL; Minimum Inhibitory Concentration (MIC) [4]: >32 µg/mL; Minimum Inhibitory Concentration (MIC) ([5]; B = E. faecalis ATCC 29212): +++ (+++ = MIC ≦4)

**Q.** How did the MIC [1, 7] turn out when Cn1cc(NC(=O)c2cc(NC(=O)c3ccc(NC(=O)c4nc(NC(=O)c5sccc5Cl)cn4C)cc3)cn2C)cc1C(=O)NCCN1CCC(F)(F)CC1 [Ih-2] was run?
**A.** > 32 µg/mL

**Q.** And the MIC [2, 8]?
**A.** < 4 µg/mL

**Q.** What about the MIC [3, 9] of the same molecule?
**A.** > 32 µg/mL

**Q.** What about the MIC ([4]; Candida albicans, ATCC38247, read-out: Minimum Inhibitory Concentration (MIC)) of the same molecule?
**A.** > 32 µg/mL

**Q.** And the MIC [5, 10]?
**A.** < 4 µg/mL

**Q.** Cn1cc(NC(=O)c2cc(NC(=O)CNC(=N)N)cn2C)cc1C(=O)NCCC(=N)N [Netropsin, netropsin, reference compound] was tested. Which MIC ([1]; ATCC11778, read-out: Minimum Inhibitory Concentration (MIC)) did it give?
**A.** < 4 µg/mL

**Q.** What about the MIC ([2]; ATCC49619, read-out: Minimum Inhibitory Concentration (MIC)) of the same molecule?
**A.** < 4 µg/mL

**Q.** What about the MIC ([6]; ATCC29213, read-out: Minimum Inhibitory Concentration (MIC)) of the same molecule?
**A.** < 4 µg/mL

**Q.** What about the MIC ([3]; ATCC25922, read-out: Minimum Inhibitory Concentration (MIC)) of the same molecule?
**A.** < 4 µg/mL

**Q.** And the MIC ([5]; ATCC29212, read-out: Minimum Inhibitory Concentration (MIC))?
**A.** < 4 µg/mL

**Q.** For CC1COc2c(N3CCN(C)CC3)c(F)cc3c(=O)c(C(=O)O)cn1c23 (stereo not shown) [Ofloxacin, reference compound], which MIC [1, 7] is on record?
**A.** < 4 µg/mL

**Q.** What about the MIC [2, 8] of the same molecule?
**A.** < 4 µg/mL

**Q.** What about the MIC ([6]; ATCC29213, A = S. aureus ATCC 29213, read-out: Minimum Inhibitory Concentration (MIC)) of the same molecule?
**A.** < 4 µg/mL

**Q.** And the MIC [3, 9]?
**A.** < 4 µg/mL

**Q.** What about the MIC [5, 10] of the same molecule?
**A.** 4 to 12 µg/mL (≈ 11.1 to 33.2 µM)

From US20060287247A1, “Halogen-substituted thienyl compounds” (priority 2001, published 2006)
